Source: patent US10278931B2, “Composition for treatment of inflammatory bowel disease and atopic dermatitis” (INNOPHARMASCREEN INC., priority 2015, dated 2019)

Columns and labels:
HMC-1 cells = assay: Cytotoxicity (MTT-assay) in HMC-1 cells; assay type: cell-based, human
Procedure: (§1) (1) Cell culture: A human mast cell line (HMC-1) was cultured in an IMDM supplemented with 10% FBS at 37° C. and 5% CO2. Candidate materials were dissolved in DMSO, and then filtered using a 0.22 μm filter. The resulting candidate materials were diluted with DMSO and the HMC-1 cells were treated therewith.
[…] After culturing, the medium was replaced by a fresh medium, 5 mg/ml of an MTT solution was then added thereto, and the mast cells were incubated at 37° C. for 4 hours. 250 DMSO was added to the mast cells, MTT formazan was extracted therefrom, and absorbance of each well was measured at 540 nm using an ELISA reader.

inflammatory cytokines = assay: Inflammatory cytokine production and mRNA expression in HMC-1 cells; assay type: cell-based, human
Procedure: as §1
(5) Reverse transcription-polymerase chain reaction (RT-PCR) quantitative real time PCR: Total RNA was isolated from cells and tissues, and cDNA was synthesized using a reverse transcriptase and was then reacted with cytokine primers to be analyzed, followed by PCR and real-time PCR. The RT-PCR products were subjected to electrophoresis using 1.5% agarose gel for analysis.

SD rats = assay: Acute dermal toxicity test; assay type: in vivo; conditions: for Number of death on day 1 / Number of death on day 2 / Number of death on day 3 / Number of death on day 4 / Number of death on day 5 / Number of death on day 6 / Number of death on day 7 / Number of death on day 8-14 / Number of death on day 0: dose group 200 (head μg/kg bw); for Number of death on day 0: single transdermal
Procedure: (1) Environmental Conditions: In the present experiment, experimental animals were bred in a clean animal breeding room (small animal room #2-302) at Hoseo University Safety Evaluation Center, set under environmental conditions: temperature of 22±3° C.; relative humidity of 50±20%; ventilation frequency of 10 to 15 times/hour; illumination period of 12 hours; and illuminance of 150 Lux to 300 Lux.
(2) Cages and rugs: Two or three animals per sex were accommodated in each of polycarbonate cages (270×500×200 mm, KYERYONG SCIENCE) with a stainless steel mesh lid during an acclimation period, and after group division, 1 animal per sex was accommodated therein. As the rugs, sterile betachips (NEPCO) irradiated with gamma rays were used.
(3) Feed and drinking water: The animals were fed freely a mouse feed for laboratory, animals (5053-Picolab Rodent 20) manufactured by PMI Nutrition International, and filtered water treated with ultraviolet sterilization (R/O water) was freely supplied as drinking water.
(4) Examination of contaminant in feed and drinking water: Contaminants in the feed were examined by receiving a test result from the feed manufacturer, and the quality of drinking water was checked for contamination by regular inspection according to the corresponding SOP of the present test institute and it was confirmed that there were no contaminants.
(A) About 24 hours before administration, hairs on the dorsal part was removed such that the hair-removed site accounted for about 10% or more of the entire surface area thereof, and attention was paid not to injure the skin.
(B) On the day of administration, a dosage for each individual was calculated, and then a test material was sufficiently wetted with a solvent and then applied on the site corresponding to about 10% (about 44 cm) of the entire surface area.
(C) The test material was kept in contact with the skin using a porous gauze, a non-irritating tape, and a bandage during the 24-hour exposure period.
(D) When the exposure period was terminated, the remaining test material was removed using tepid water.
(A) General symptom observation: All animals were observed intensively from 30 minutes to 4 hours after administration, and general symptoms were observed once a day for 14 days. At the time of observation, death and clinical symptoms were recorded on an individual basis.
(B) Body weight measurement: All animals were measured at the time of receipt, at the time of group division, immediately before administration (day of administration), and on day 1, day 4, day 7, day 10, and day 14 after initiation of administration.
(C) Autopsy: During the test, dead animals were immediately autopsied and organs were inspected with the naked eye, and at the end of the test, all living animals were euthanized by CO2 gas inhalation and venesectioned, and then the organs visually examined.
(E) Statistical analysis: Body weight data were expressed as mean and standard deviation, and no statistical analysis of body weight was performed.

SMILES: Cl.N=C(N)NC(=N)Nc1ccc(Cl)cc1 [IPS-07001]
- cytotoxicity (MTT-assay) (HMC-1 cells; 10 μM): exhibited cytotoxicity
- cytotoxicity (MTT-assay) (HMC-1 cells; up to 1 μM): no cytotoxicity
- production and mRNA expression of various inflammatory cytokines (inflammatory cytokines): significantly inhibited
- Number of death on day 1 (SD rats; Female): 0
- Number of death on day 2 (SD rats; Female): 0
- Number of death on day 3 (SD rats; Female): 0
- Number of death on day 4 (SD rats; Female): 0
- Number of death on day 5 (SD rats; Female): 0
- Number of death on day 6 (SD rats; Female): 0
- Number of death on day 7 (SD rats; Female): 0
- Number of death on day 8-14 (SD rats; Female): 0
- Number of death on day 0 (SD rats; Female): 0
- Number of death on day 1 (SD rats; Male): 0
- Number of death on day 2 (SD rats; Male): 0
- Number of death on day 3 (SD rats; Male): 0
- Number of death on day 4 (SD rats; Male): 0
- Number of death on day 5 (SD rats; Male): 0
- Number of death on day 6 (SD rats; Male): 0
- Number of death on day 7 (SD rats; Male): 0
- Number of death on day 8-14 (SD rats; Male): 0
- Number of death on day 0 (SD rats; Male): 0
- dead animals during the test period (SD rats; all test material-administered groups, 14 days): No dead animals
- Gross findings (internal and external) (SD rats; rat, in vivo): NGF ^a)
- body weight from day 2 (SD rats; rat, in vivo): normal body weight increase pattern
- body weight on day 1 after administration (SD rats; rat, in vivo): decrease in body weight
- clinical symptoms, 4 hour (SD rats; rat, in vivo): NCS
- clinical symptoms, Day 1 (SD rats; rat, in vivo): NCS
- clinical symptoms, Day 2 (SD rats; rat, in vivo): NCS
- clinical symptoms, Day 3 (SD rats; rat, in vivo): NCS
- clinical symptoms, Day 4 (SD rats; rat, in vivo): NCS
- clinical symptoms, Day 5 (SD rats; rat, in vivo): NCS
- clinical symptoms, Day 6 (SD rats; rat, in vivo): NCS
- clinical symptoms, Day 7 (SD rats; rat, in vivo): NCS
- clinical symptoms, Day 8 (SD rats; rat, in vivo): NCS
- clinical symptoms, Day 9 (SD rats; rat, in vivo): NCS
- clinical symptoms, Day 10-14 (SD rats; rat, in vivo): NCS
- visual pathological examination (autopsy) (SD rats; surviving animals after observation period): no individual showed any abnormalities
